Source: PubChem BioAssay (NCI)
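Grown in 96-well plates, cells were treated for 48 hours with each compound at five concentrations. Insufficient inhibition: endpoint recorded as highest concentration tested. The concentration for 50% growth inhibition is given as GI50. TGI denotes the concentration required for complete inhibition of growth.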

What was measured:
Test in all cases: inhibition of tumour cell growth, NCI panel, 48 h
HCT-116 colon = test system: HCT-116 colon
ACHN renal = test system: ACHN renal
PC-3 prostate = test system: PC-3 prostate
HOP-92 NSCLC = test system: HOP-92 NSCLC
BT-549 breast = test system: BT-549 breast
UO-31 renal = test system: UO-31 renal
HCT-15 colon = test system: HCT-15 colon
MDA-MB-435 = test system: MDA-MB-435
TK-10 renal = test system: TK-10 renal
HS 578T breast = test system: HS 578T breast

Row | SMILES | TGI (HCT-116 colon) [µM] | TGI (ACHN renal) [µM] | TGI (PC-3 prostate) [µM] | TGI (HOP-92 NSCLC) [µM] | TGI (BT-549 breast) [µM] | TGI (UO-31 renal) [µM] | TGI (HCT-15 colon) [µM] | TGI (MDA-MB-435) [µM] | GI50 (TK-10 renal) [µM] | TGI (TK-10 renal) [µM] | GI50 (HCT-116 colon) [µM] | GI50 (ACHN renal) [µM] | GI50 (PC-3 prostate) [µM] | GI50 (HS 578T breast) [µM] | TGI (HS 578T breast) [µM] | GI50 (BT-549 breast) [µM] | GI50 (UO-31 renal) [µM] | GI50 (HCT-15 colon) [µM] | GI50 (MDA-MB-435) [µM]
1 | Cc1nn(C)c2nc3ccc(Cl)cc3c(-c3ccccc3)c12 | > 100 | > 100 | > 100 | > 100 | > 100 | > 100 | > 100 | > 100 |  |  |  |  |  |  |  |  |  |  | 
2 | COc1cc(OC)cc(-c2n/c(=C\c3c(O)[nH]c4ccc(Cl)cc34)cc3c2=Nc2ccccc2-3)c1 | 3.43 | 20.7 | 28.7 |  | 9.75 | 29.2 | 27.7 | 35.4 | 3.79 | 8.96 | 1.9 | 5.37 | 5.55 | 16.4 | 62.4 | 3 | 12.5 | 6.58 | 14
3 | CC(C)(C)OC(=O)NCC(=O)NC1C/C(=N\O)c2sccc21 (stereo unspecified) | > 100 |  | > 100 |  | > 100 | > 100 | > 100 | > 100 |  | > 100 |  |  |  |  | > 100 |  |  |  | 
4 | COc1cc(C(c2cccc3ccccc23)N2C(=O)CCC2C(=O)NCc2ccccc2)cc(OC)c1OC (stereo unspecified) | > 100 |  |  | > 100 | > 100 | > 100 | > 100 | > 100 |  |  |  |  |  |  | > 100 |  |  |  | 
5 | CCNc1ncnc2c1nnn2CC | > 100 | > 100 | > 100 | > 100 |  | > 100 | > 100 | > 100 |  | > 100 |  |  |  |  |  |  |  |  | 
6 | O=C(N/N=C/c1ccc(Cl)cc1)c1cc(I)cc(I)c1O | > 100 | > 100 | > 100 | > 100 | > 100 | > 100 | > 100 | > 100 |  | > 100 |  |  |  |  |  |  |  |  | 
7 | Cc1c(C#N)c2nnn(-c3ccccc3)c(=O)n2c1-c1ccccc1 | 13.2 | > 100 | > 100 | > 100 | > 100 | > 100 | > 100 |  |  | > 100 |  |  |  |  | > 100 |  |  |  | 
8 | C[C@@H]1CC[C@@H](C)[C@](C)(CCc2ccoc2)C/C=C\C=C/1C(=O)O | > 50 | > 50 | > 50 | > 50 | > 50 | > 50 | > 50 |  |  | > 50 |  |  |  |  | > 50 |  |  |  | 
9 | COc1cccc(NC(=O)CC(=O)NNCC(=O)Nc2nnc(-c3ccc(N(CCC#N)S(=O)(=O)c4ccccc4)cc3)s2)c1 | > 100 | > 100 |  | > 100 |  | > 100 | > 100 |  |  | > 100 |  |  |  |  |  |  |  |  | 
10 | COc1cc2c(cc1C)NC(=O)/C2=C\c1ccncc1 | 5.09 | 20.2 | > 100 | > 100 |  | 18.3 | 16 | 20 |  | 21.4 |  |  |  |  | 8.1 |  |  |  | 
11 | CN(C)C(=O)C(F)(F)C(c1ccc(Br)cc1)C1C(=O)N(C)C(=O)N(C)C1=O (stereo unspecified) | > 100 | > 100 | > 100 | > 100 | > 100 | > 100 | > 100 | > 100 |  | > 100 |  |  |  |  |  |  |  |  | 
12 | Oc1ccc(Cl)cc1C1=N/C(=N\C/N=C2\N=C(c3cc(Cl)ccc3O)CC(c3ccccc3)N2)NC(c2ccccc2)C1 (stereo unspecified) | > 100 | > 100 | > 100 | > 100 | > 100 | > 100 | > 100 | > 100 |  | > 100 |  |  |  |  |  |  |  |  | 
13 | O=C(O)c1cc(Cl)cc2c1NC1(N2)C(=O)Nc2ccccc21 (stereo unspecified) | > 100 | > 100 | > 100 | > 100 | > 100 | > 100 | > 100 | > 100 |  | > 100 |  |  |  |  |  |  |  |  | 
14 | CN1Cc2c(nc(-c3ccc(Br)cc3)c[n+]2[O-])N(C)C1 | > 100 | > 100 |  | > 100 |  | > 100 |  |  |  |  |  |  |  |  |  |  |  |  | 
15 | CC(=O)O[C@H]1CN(S(=O)(=O)c2ccc(C)cc2)C[C@@H]1C1CCCCC1 |  | > 100 | 58.5 | 82.4 |  | > 100 | > 100 | 70.5 |  | 72.2 |  |  |  |  | 37.8 |  |  |  | 
16 | N#CC1(c2ccccc2)CCN(C2(c3ccccc3)CCCCC2)CC1 | > 100 | > 100 | > 100 |  | > 100 | > 100 | > 100 | > 100 |  | > 100 |  |  |  |  | > 100 |  |  |  | 
17 | CCN1CCCC(Nc2cc(C)nc(/N=C(/N)Nc3ccc(Cl)c(Cl)c3)n2)C1 (stereo unspecified) | 2.76 | 5.56 |  | 3.33 | 3.29 | 2.18 | 3.7 | 2.89 |  | 3.22 |  |  |  |  |  |  |  |  | 
18 | O=c1[nH]cnc2sc(=S)c3c(c12)CCC3 | > 100 | 33.6 | > 100 | 66.3 |  | > 100 | 91.4 | > 100 |  | 61.9 |  |  |  |  | > 100 |  |  |  | 
19 | C=CCC1(CC)C(=O)NC(=O)NC1=O | > 100 | > 100 |  |  |  | > 100 | > 100 |  |  | > 100 |  |  |  |  |  |  |  |  | 
